In paper PMC9487190 (Parasitology research, 2022):

What was measured:
[1] = tested on: human cystic echinococcosis (CE); conditions: ref Gottstein et al., 2015; Hemphill et al., 2014; cited from earlier work
EgSERT [2] = target: T1, EgSERT (Echinococcus granulosus, UniProt W6UF91); assay type: cell-based; conditions: 50 nM radiolabeled substrate, 10 min, room temperature, COS-7 cells
EgSERT [3] = target: T1, EgSERT; assay type: cell-based; conditions: at around 1 μM
[4] = tested on: protoscoleces of E. granulosus; conditions: 100 μM; ref Camicia et al., 2013; Herz and Brehm, 2021; cited from earlier work
S. mansoni miracidia = conditions: exogenously added, 50 μM; ref Taft et al., 2010; cited from earlier work
[5] = tested on: E. multilocularis metacestode vesicles and primary cells; conditions: ref Herz and Brehm (2021), cited from earlier work
EgSERT [6] = target: T1, EgSERT; assay type: cell-based; conditions: COS-7 cells, 15 nM – 10 μM serotonin, 10 min

## CCCSc1ccc2nc(NC(=O)OC)[nH]c2c1 [ABZ, albendazole]
[1]
  share of CE cases in which treatment is ineffective: ~ 40%

## NCCCC(=O)O [GABA]
EgSERT [2]
  transport of radiolabeled substrate by EgSERT compared with background: does not transport

## CN(C)CCCC1(c2ccc(F)cc2)OCc2cc(C#N)ccc21 (stereo not drawn) [citalopram]
EgSERT [3]
  inhibition of serotonin transport by EgSERT: almost complete inhibition
[4]
  effect on motility and development of protoscoleces: strong inhibitory effect
S. mansoni miracidia
  effect on miracidial transformation rates: detrimental effect

## NCCc1ccc(O)c(O)c1 [dopamine]
EgSERT [2]
  transport of radiolabeled substrate by EgSERT compared with background: does not transport

## N[C@@H](CCC(=O)O)C(=O)O [glutamate, glutamic acid]
EgSERT [2]
  transport of radiolabeled substrate by EgSERT compared with background: does not transport

## NCC(=O)O [glycine]
EgSERT [2]
  transport of radiolabeled substrate by EgSERT compared with background: does not transport

## Fc1ccc([C@@H]2CCNC[C@H]2COc2ccc3c(c2)OCO3)cc1 [paroxetine]
[5]; 100 μM
  metacestode vesicle damage and viability of primary cell culture: significant metacestode vesicle damage and cell viability reduction

## NCCc1c[nH]c2ccc(O)cc12 [serotonin, 5-hydroxytryptamine]
EgSERT [6]
  Vmax of serotonin uptake: 615 ± 33 fmol/min/well
[5]; exogenous, dose dependent
  metacestode vesicle formation and cell proliferation from primary cells: induces metacestode vesicle formation and cell proliferation
EgSERT [2]
  transport of radiolabeled substrate by EgSERT compared with background: significantly higher accumulation
